The values below come from PMC5012908 (Acta biomaterialia, 2016).

For series [1] the following is noted: read-out: IC50 (antifungal); isotonic glucose phosphate buffer; cited from earlier work.
Series [2] can be described thus: Circular dichroism of β-peptide solutions. In kind it is physicochemical. As to conditions: 0.1 mM peptide, 20 °C, consistent with 14-helicity without aggregation.

magainin-2: the IC50 in series [1] is 300 nM.

As for “Coumarin-linker-(ACHC-β^3hVal-β^3hLys)3 [β-peptide 1]”, the “CD minimum in methanol” value in series [2] came to 214 nm.
